From paper PMC4685510, “A Cell Biologist’s Field Guide to Aurora Kinase Inhibitors” (Frontiers in Oncology, 2015)
Read-outs that look alike come from different tables or passages of the source.

Columns and labels:
Experiment in all cases: biochemical
Type in all cases: biochemical
[1] = target: 363 human kinases (including Aurora A/B/C) (Homo sapiens, UniProt Q9Y243); settings: AKT3, [ATP] 50 µM; for remaining activity at 0.5 µM / remaining activity at 0.1 µM: read-out: % Enzyme Activity (relative to DMSO controls); for remaining activity at 0.1 µM: 100 nM
Sequence of 363 human kinases (including Aurora A/B/C) (Homo sapiens, UniProt Q9Y243) (Q9Y243 whole entry): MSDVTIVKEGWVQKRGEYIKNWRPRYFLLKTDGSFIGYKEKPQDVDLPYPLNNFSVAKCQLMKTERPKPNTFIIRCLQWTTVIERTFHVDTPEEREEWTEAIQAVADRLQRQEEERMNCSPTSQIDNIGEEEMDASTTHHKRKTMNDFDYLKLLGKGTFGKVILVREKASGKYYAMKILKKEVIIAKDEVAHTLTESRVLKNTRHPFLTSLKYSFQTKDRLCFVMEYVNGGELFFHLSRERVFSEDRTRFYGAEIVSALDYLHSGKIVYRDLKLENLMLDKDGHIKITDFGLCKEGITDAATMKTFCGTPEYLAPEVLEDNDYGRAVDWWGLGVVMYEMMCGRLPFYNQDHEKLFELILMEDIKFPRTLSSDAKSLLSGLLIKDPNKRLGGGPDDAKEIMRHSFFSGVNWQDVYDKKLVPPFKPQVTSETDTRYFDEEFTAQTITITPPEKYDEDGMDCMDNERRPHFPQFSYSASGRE
Excerpt: (§1) However, the Aurora A/B selectivity ratios derived from our in vitro and in vivo data can be compared to prioritize inhibitors.

[2] = target: 363 human kinases (including Aurora A/B/C) (Homo sapiens, UniProt Q9P286); settings: PAK5; for remaining activity at 0.5 µM / remaining activity at 0.1 µM: read-out: % Enzyme Activity (relative to DMSO controls); for remaining activity at 0.1 µM: 100 nM
Sequence of 363 human kinases (including Aurora A/B/C) (Homo sapiens, UniProt Q9P286) (Q9P286 whole entry): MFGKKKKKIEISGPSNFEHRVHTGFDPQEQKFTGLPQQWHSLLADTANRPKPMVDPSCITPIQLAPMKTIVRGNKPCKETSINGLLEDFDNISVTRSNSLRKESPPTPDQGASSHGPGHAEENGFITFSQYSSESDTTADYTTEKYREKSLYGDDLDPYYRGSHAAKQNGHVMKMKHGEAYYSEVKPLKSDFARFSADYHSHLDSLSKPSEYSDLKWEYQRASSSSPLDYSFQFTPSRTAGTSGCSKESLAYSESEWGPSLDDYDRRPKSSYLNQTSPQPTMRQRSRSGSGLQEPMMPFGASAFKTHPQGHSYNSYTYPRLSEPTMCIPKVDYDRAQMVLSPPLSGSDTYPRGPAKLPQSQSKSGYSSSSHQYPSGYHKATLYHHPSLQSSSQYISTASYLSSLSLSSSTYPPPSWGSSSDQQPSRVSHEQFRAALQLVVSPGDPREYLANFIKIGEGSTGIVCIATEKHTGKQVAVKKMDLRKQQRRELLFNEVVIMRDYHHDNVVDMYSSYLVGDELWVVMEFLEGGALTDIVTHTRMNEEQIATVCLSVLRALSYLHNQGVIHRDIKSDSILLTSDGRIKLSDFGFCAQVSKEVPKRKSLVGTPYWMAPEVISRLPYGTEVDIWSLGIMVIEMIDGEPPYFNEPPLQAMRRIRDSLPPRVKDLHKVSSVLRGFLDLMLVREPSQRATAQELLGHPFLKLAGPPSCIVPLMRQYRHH
Excerpt: as §1

[3] = target: 363 human kinases (including Aurora A/B/C) (Homo sapiens, UniProt Q13557); settings: CAMK2d, [ATP] 30 µM; for remaining activity at 0.5 µM / remaining activity at 0.1 µM: read-out: % Enzyme Activity (relative to DMSO controls); for remaining activity at 0.1 µM: 100 nM
Sequence of 363 human kinases (including Aurora A/B/C) (Homo sapiens, UniProt Q13557) (Q13557 whole entry): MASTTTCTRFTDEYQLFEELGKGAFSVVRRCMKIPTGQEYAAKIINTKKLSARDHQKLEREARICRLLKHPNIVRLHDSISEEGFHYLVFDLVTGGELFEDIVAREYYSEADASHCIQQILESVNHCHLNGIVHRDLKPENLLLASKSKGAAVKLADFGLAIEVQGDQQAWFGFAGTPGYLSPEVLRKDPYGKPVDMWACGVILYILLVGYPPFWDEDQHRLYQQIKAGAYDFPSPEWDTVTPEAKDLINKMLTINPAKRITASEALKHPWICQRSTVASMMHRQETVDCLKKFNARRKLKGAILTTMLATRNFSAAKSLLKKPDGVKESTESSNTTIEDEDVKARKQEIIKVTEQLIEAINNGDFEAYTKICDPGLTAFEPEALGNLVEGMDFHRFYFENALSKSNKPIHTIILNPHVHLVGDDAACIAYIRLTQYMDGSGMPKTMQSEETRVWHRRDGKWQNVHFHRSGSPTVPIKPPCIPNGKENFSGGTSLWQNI
Excerpt: as §1

[4] = target: 363 human kinases (including Aurora A/B/C) (Homo sapiens, UniProt P27448); settings: MARK3; for remaining activity at 0.5 µM / remaining activity at 0.1 µM: read-out: % Enzyme Activity (relative to DMSO controls); for remaining activity at 0.1 µM: 100 nM
Sequence of 363 human kinases (including Aurora A/B/C) (Homo sapiens, UniProt P27448) (P27448 whole entry): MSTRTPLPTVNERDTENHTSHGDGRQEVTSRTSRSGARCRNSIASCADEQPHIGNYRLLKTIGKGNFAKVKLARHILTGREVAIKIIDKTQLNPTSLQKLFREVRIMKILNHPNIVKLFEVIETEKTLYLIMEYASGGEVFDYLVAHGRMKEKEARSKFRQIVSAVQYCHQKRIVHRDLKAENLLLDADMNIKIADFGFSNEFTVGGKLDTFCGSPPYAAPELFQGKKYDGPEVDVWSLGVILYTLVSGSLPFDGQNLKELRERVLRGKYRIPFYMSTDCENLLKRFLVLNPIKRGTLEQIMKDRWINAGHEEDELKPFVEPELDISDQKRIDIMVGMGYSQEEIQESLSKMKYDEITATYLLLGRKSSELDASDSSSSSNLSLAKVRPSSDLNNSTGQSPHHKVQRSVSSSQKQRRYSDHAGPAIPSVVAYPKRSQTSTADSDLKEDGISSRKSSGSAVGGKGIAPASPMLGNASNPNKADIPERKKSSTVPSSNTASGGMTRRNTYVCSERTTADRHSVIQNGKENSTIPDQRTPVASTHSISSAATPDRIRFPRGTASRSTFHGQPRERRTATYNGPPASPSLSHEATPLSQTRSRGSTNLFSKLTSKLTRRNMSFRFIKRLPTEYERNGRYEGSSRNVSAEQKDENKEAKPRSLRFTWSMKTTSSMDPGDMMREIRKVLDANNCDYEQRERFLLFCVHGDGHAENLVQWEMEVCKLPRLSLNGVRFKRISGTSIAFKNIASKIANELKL
Excerpt: as §1

[5] = target: 363 human kinases (including Aurora A/B/C) (Homo sapiens, UniProt P24941); settings: for % Enzyme Activity (relative to DMSO controls) / remaining activity at 0.5 µM: 500 nM; for remaining activity at 0.5 µM / remaining activity at 0.1 µM: read-out: % Enzyme Activity (relative to DMSO controls); for remaining activity at 0.1 µM: 100 nM
Excerpt: as §1

[6] = target: 363 human kinases (including Aurora A/B/C) (Homo sapiens, UniProt Q9UK32); settings: RSK4; for remaining activity at 0.5 µM / remaining activity at 0.1 µM: read-out: % Enzyme Activity (relative to DMSO controls); for remaining activity at 0.1 µM: 100 nM
Sequence of 363 human kinases (including Aurora A/B/C) (Homo sapiens, UniProt Q9UK32) (Q9UK32 whole entry): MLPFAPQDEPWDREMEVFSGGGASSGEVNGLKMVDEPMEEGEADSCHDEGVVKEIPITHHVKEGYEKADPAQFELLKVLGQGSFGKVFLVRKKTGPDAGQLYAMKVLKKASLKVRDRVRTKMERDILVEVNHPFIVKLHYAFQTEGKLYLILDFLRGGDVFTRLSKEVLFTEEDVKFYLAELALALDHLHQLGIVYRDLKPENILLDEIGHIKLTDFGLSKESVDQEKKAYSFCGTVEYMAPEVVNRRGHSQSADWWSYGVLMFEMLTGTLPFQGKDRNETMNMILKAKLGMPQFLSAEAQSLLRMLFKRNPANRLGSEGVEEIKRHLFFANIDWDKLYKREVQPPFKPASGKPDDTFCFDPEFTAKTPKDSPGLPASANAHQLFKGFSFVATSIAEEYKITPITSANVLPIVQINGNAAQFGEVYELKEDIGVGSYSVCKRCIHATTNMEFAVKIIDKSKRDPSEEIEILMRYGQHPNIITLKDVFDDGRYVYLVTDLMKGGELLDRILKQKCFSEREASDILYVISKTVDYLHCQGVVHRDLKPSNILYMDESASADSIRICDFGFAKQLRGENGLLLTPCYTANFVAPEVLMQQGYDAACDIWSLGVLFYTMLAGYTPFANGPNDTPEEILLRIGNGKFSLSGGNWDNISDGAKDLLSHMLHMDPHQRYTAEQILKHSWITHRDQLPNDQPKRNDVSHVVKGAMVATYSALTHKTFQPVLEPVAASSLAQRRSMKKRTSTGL
Excerpt: as §1

[7] = target: T1, 363 human kinases (including Aurora A/B/C) (Homo sapiens, UniProt Q9UKI8); settings: TLK1; for remaining activity at 0.5 µM / remaining activity at 0.1 µM: read-out: % Enzyme Activity (relative to DMSO controls); for remaining activity at 0.1 µM: 100 nM
T1 sequence (Q9UKI8 1-766): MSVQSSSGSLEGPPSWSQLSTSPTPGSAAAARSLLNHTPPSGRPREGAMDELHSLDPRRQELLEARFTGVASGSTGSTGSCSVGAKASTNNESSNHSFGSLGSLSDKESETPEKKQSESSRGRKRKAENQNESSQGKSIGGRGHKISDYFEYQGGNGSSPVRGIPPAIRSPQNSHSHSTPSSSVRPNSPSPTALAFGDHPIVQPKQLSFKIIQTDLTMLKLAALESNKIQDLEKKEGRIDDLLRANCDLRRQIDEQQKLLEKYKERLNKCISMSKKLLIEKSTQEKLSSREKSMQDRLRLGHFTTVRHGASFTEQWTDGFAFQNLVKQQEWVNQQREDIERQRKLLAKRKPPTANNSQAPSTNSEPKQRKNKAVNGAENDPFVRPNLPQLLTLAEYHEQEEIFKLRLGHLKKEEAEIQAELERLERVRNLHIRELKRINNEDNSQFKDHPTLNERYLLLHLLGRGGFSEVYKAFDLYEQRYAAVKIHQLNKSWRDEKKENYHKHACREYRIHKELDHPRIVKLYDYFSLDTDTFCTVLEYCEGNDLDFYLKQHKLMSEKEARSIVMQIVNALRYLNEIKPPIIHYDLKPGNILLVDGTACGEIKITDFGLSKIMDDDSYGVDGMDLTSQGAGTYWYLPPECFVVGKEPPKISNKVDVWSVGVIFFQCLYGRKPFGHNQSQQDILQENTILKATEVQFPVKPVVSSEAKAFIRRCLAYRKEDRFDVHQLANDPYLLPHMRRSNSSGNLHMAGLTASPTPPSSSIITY
Excerpt: as §1

[8] = target: 363 human kinases (including Aurora A/B/C) (Homo sapiens, UniProt O15075); settings: DCAMKL1, [ATP] 50 µM; for remaining activity at 0.5 µM / remaining activity at 0.1 µM: read-out: % Enzyme Activity (relative to DMSO controls); for remaining activity at 0.1 µM: 100 nM
Sequence of 363 human kinases (including Aurora A/B/C) (Homo sapiens, UniProt O15075) (O15075 whole entry): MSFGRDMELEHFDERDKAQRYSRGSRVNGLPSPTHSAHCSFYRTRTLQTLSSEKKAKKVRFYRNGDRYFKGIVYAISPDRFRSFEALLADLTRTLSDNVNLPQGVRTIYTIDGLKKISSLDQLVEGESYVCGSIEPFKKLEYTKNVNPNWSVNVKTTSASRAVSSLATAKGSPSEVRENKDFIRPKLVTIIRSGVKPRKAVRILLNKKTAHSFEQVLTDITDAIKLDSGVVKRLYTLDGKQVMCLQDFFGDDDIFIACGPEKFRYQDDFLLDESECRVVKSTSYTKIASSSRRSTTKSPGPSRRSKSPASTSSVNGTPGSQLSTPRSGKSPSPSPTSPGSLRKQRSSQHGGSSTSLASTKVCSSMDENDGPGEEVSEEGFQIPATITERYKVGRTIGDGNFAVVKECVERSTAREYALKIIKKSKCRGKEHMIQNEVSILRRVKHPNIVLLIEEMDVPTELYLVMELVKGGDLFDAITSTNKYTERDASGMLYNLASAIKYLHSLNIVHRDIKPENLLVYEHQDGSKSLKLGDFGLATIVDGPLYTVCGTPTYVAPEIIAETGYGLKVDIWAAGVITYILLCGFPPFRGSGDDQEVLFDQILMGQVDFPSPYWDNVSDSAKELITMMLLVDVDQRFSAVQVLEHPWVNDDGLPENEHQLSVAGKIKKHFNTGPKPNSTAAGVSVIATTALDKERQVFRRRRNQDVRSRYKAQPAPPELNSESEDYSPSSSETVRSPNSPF
Excerpt: as §1

[9] = target: 363 human kinases (including Aurora A/B/C) (Homo sapiens, UniProt P78362); settings: SRPK2; for remaining activity at 0.5 µM / remaining activity at 0.1 µM: read-out: % Enzyme Activity (relative to DMSO controls); for remaining activity at 0.1 µM: 100 nM
Excerpt: as §1

[10] = target: 363 human kinases (including Aurora A/B/C) (Homo sapiens, UniProt O75676); settings: MSK2/RPS6KA4; for remaining activity at 0.5 µM / remaining activity at 0.1 µM: read-out: % Enzyme Activity (relative to DMSO controls); for remaining activity at 0.1 µM: 100 nM
Excerpt: as §1

[11] = target: 363 human kinases (including Aurora A/B/C) (Homo sapiens, UniProt P32298); settings: GRK4; for remaining activity at 0.5 µM / remaining activity at 0.1 µM: read-out: % Enzyme Activity (relative to DMSO controls); for remaining activity at 0.1 µM: 100 nM
Excerpt: as §1

[12] = target: 363 human kinases (including Aurora A/B/C) (Homo sapiens, UniProt P16234); settings: PDGFRa; for remaining activity at 0.5 µM / remaining activity at 0.1 µM: read-out: % Enzyme Activity (relative to DMSO controls); for remaining activity at 0.1 µM: 100 nM
Sequence of 363 human kinases (including Aurora A/B/C) (Homo sapiens, UniProt P16234) (P16234 24-1089): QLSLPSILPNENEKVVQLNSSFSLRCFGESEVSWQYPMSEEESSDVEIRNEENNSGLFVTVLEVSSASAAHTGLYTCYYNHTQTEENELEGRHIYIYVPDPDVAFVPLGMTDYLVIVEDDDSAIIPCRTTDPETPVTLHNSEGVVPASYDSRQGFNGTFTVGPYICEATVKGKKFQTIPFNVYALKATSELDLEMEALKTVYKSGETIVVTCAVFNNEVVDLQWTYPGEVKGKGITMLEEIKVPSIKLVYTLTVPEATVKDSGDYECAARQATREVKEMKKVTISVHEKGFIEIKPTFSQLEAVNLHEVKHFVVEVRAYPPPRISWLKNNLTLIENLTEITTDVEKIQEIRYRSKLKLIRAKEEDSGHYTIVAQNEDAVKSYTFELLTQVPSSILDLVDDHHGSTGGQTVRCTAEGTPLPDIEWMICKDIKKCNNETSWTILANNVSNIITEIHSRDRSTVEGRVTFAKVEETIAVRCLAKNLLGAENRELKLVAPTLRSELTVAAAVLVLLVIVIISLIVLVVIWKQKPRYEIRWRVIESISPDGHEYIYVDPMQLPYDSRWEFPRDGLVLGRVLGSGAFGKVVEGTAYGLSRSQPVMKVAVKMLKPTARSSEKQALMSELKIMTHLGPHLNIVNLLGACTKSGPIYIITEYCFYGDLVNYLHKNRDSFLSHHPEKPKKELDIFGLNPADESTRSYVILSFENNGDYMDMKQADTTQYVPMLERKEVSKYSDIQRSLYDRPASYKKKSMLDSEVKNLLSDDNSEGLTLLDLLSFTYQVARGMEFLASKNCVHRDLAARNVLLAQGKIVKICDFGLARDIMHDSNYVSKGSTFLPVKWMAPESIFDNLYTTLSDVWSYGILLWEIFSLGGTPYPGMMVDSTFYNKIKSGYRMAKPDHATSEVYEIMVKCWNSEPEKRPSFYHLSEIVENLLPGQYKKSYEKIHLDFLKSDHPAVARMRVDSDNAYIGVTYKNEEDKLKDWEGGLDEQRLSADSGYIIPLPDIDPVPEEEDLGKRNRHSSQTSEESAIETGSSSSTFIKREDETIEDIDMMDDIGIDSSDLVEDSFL
Excerpt: as §1

[13] = target: 363 human kinases (including Aurora A/B/C) (Homo sapiens, UniProt Q13555); settings: CAMK2g, [ATP] 2.5 µM; for remaining activity at 0.5 µM / remaining activity at 0.1 µM: read-out: % Enzyme Activity (relative to DMSO controls); for remaining activity at 0.1 µM: 100 nM
Excerpt: as §1

O=C(c1cccc(Cl)c1F)N1CCN(Cc2cccc(Nc3nccs3)n2)CC1 [MK-8745]
% Enzyme Activity (relative to DMSO controls) ([1]; 500 nM): 98.52%
remaining activity at 0.5 µM ([1]; 500 nM): 98.6%
% Enzyme Activity (relative to DMSO controls) ([2]; 500 nM): 92.01%
remaining activity at 0.5 µM ([2]; 500 nM): 103%
% Enzyme Activity (relative to DMSO controls) ([3]; 500 nM): 97.95%
remaining activity at 0.5 µM ([3]; 500 nM): 98.5%
% Enzyme Activity (relative to DMSO controls) ([4]; 500 nM): 110.19%
remaining activity at 0.5 µM ([4]; 500 nM): 111%
% Enzyme Activity (relative to DMSO controls) ([5]; CDK2/Cyclin A1, [ATP] 100 µM): 75.87%
remaining activity at 0.5 µM ([5]; CDK2/Cyclin A1, [ATP] 100 µM): 79.6%
% Enzyme Activity (relative to DMSO controls) ([5]; CDK2/cyclin A, [ATP] 100 µM): 83.95%
remaining activity at 0.5 µM ([5]; CDK2/cyclin A, [ATP] 100 µM): 85.1%
% Enzyme Activity (relative to DMSO controls) ([5]; CDK2/cyclin E, [ATP] 5 µM): 85.62%
remaining activity at 0.5 µM ([5]; CDK2/cyclin E, [ATP] 5 µM): 86.3%
% Enzyme Activity (relative to DMSO controls) ([5]; CDK2/cyclin O, [ATP] 30 µM): 90.54%
remaining activity at 0.5 µM ([5]; CDK2/cyclin O, [ATP] 30 µM): 90.6%
% Enzyme Activity (relative to DMSO controls) ([6]; 500 nM): 94.73%
remaining activity at 0.5 µM ([6]; 500 nM): 97.1%
% Enzyme Activity (relative to DMSO controls) ([7]; 500 nM): 119.91%
remaining activity at 0.5 µM ([7]; 500 nM): 125%
% Enzyme Activity (relative to DMSO controls) ([8]; 500 nM): 138.94%
remaining activity at 0.5 µM ([8]; 500 nM): 142%
% Enzyme Activity (relative to DMSO controls) ([9]; 500 nM): 98.38%
remaining activity at 0.5 µM ([9]; 500 nM): 99.7%
% Enzyme Activity (relative to DMSO controls) ([10]; 500 nM): 96.01%
remaining activity at 0.5 µM ([10]; 500 nM): 96.1%
% Enzyme Activity (relative to DMSO controls) ([11]; 500 nM): 94.47%
remaining activity at 0.5 µM ([11]; 500 nM): 94.8%
% Enzyme Activity (relative to DMSO controls) ([12]; 500 nM): 99.66%
remaining activity at 0.5 µM ([12]; 500 nM): 99.8%
% Enzyme Activity (relative to DMSO controls) ([13]; 500 nM): 92.25%
remaining activity at 0.5 µM ([13]; 500 nM): 94.3%

CCn1cc(-c2ccnc3[nH]c(-c4cccc(CN(C)C)c4)cc23)c(-c2ccc(NC(=O)N(C)C)cc2)n1 [GSK1070916]
remaining activity at 0.1 µM [1]: 94.8%
remaining activity at 0.1 µM [2]: 99.9%
remaining activity at 0.1 µM [3]: 94.6%
remaining activity at 0.1 µM [4]: 97.2%
remaining activity at 0.1 µM ([5]; CDK2/Cyclin A1, [ATP] 100 µM): 89.8%
remaining activity at 0.1 µM ([5]; CDK2/cyclin A, [ATP] 100 µM): 104%
remaining activity at 0.1 µM ([5]; CDK2/cyclin E, [ATP] 5 µM): 93%
remaining activity at 0.1 µM ([5]; CDK2/cyclin O, [ATP] 30 µM): 94.7%
remaining activity at 0.1 µM [6]: 93.6%
remaining activity at 0.1 µM [7]: 120%
remaining activity at 0.1 µM [8]: 114%
remaining activity at 0.1 µM [9]: 96.5%
remaining activity at 0.1 µM [10]: 103%
remaining activity at 0.1 µM [11]: 95.2%
remaining activity at 0.1 µM [12]: 94%
remaining activity at 0.1 µM [13]: 94.5%

O=C(O)[C@]1(Cc2cccc(Nc3nccs3)n2)CC[C@@H](Oc2cccc(Cl)c2F)CC1 [MK-5108]
remaining activity at 0.1 µM [1]: 97.4%
remaining activity at 0.5 µM ([1]; 500 nM): 99.1%
remaining activity at 0.1 µM [2]: 107%
remaining activity at 0.5 µM ([2]; 500 nM): 78.1%
remaining activity at 0.1 µM [3]: 101%
remaining activity at 0.5 µM ([3]; 500 nM): 98.6%
remaining activity at 0.1 µM [4]: 98.4%
remaining activity at 0.5 µM ([4]; 500 nM): 107%
remaining activity at 0.1 µM ([5]; CDK2/Cyclin A1, [ATP] 100 µM): 100%
remaining activity at 0.5 µM ([5]; CDK2/Cyclin A1, [ATP] 100 µM): 73.4%
remaining activity at 0.1 µM ([5]; CDK2/cyclin A, [ATP] 100 µM): 97.7%
remaining activity at 0.5 µM ([5]; CDK2/cyclin A, [ATP] 100 µM): 75.7%
remaining activity at 0.1 µM ([5]; CDK2/cyclin E, [ATP] 5 µM): 90.3%
remaining activity at 0.5 µM ([5]; CDK2/cyclin E, [ATP] 5 µM): 83.3%
remaining activity at 0.1 µM ([5]; CDK2/cyclin O, [ATP] 30 µM): 88.6%
remaining activity at 0.5 µM ([5]; CDK2/cyclin O, [ATP] 30 µM): 84.7%
remaining activity at 0.1 µM [6]: 94.2%
remaining activity at 0.5 µM ([6]; 500 nM): 90.1%
remaining activity at 0.1 µM [7]: 95.7%
remaining activity at 0.5 µM ([7]; 500 nM): 116%
remaining activity at 0.1 µM [8]: 108%
remaining activity at 0.5 µM ([8]; 500 nM): 131%
remaining activity at 0.1 µM [9]: 95.4%
remaining activity at 0.5 µM ([9]; 500 nM): 94.3%
remaining activity at 0.1 µM [10]: 103%
remaining activity at 0.5 µM ([10]; 500 nM): 98.8%
remaining activity at 0.1 µM [11]: 96.7%
remaining activity at 0.5 µM ([11]; 500 nM): 92.9%
remaining activity at 0.1 µM [12]: 97.1%
remaining activity at 0.5 µM ([12]; 500 nM): 92.6%
remaining activity at 0.1 µM [13]: 91.1%
remaining activity at 0.5 µM ([13]; 500 nM): 94.4%
